Assays:
Format in all cases: cell-based
OST = assay: 35S metabolic labeling of pSAP and SHBG in Hela cells
Protocol: FIGS. 2A-2I illustrate the finding that NGI-1 blocks OST function. FIG. 2A illustrates the western blots of glycosylated luciferase (Luc) after treatment with 1 μM tunicmaycin (Tn) and 10 μM NGI-1 in CHO-Lec15 and CHO-Lec35 cells with stable expression of ER-LucT. FIG. 2B is a […] illustrating FACE analysis of lipid linked oligosaccharides (LLOs). FIG. 2C is a series of western blots illustrating the effects of NGI-1 (5 μM) on free oligosaccharides (left panel) and N-linked glycans cleaved from peptides with Peptide-N-Glycosidase F (right panel). Carbohydrate size is indicated with glucose markers (G4-G7). FIG. 2D is a western blot illustrating cell free inhibition of the OST using a rabbit reticulocyte lysate translation system supplemented with canine pancreas rough microsomes (cRM). Saposin-DDK-His6 mRNA was translated for 60 min in the presence of ^35S methionine and the indicated concentration of NGI-1 or Tn. […] FIG. 2E comprises a series of western blots illustrating results from NGI-1 compared to siRNA knockdown of STT3A or STT3B. Glycoforms are represented by 0-5n and 0-2n respectively and average number of glycans per sample is reported for each condition. NC=non-coding siRNA, EH=endoglycosidase H treated. […] FIGS. 2G-2H: Dose response and quantitation of NGI-1 effect on pSAP (squares) and SHBG glycosylation (circles). […]

A549 cells = assay: Apoptosis by flow cytometry (Annexin-V, 7-AAD), A549; details: A549, NGI-1 10 μM for 2 or 5 days, or Tn 1 μM
Protocol: Analysis of apoptosis susceptibility in A549 and PC9 NSCLC cell lines followed treatment with NGI-1 10 μM or Tn 1 μM for 2 days was done by flow cytometry after staining the cells with Annexin-V (early apoptosis) and 7-AAD (viability dye). […] FIG. 9C: Western blot of BIP protein for A549 and PC9 cells after treatment with 10 μM NGI-1 for 6, 12 or 24 h. The expression of GAPDH was used as a loading control.

H3255 cells = assay: MTT proliferation assay, H3255; details: H3255, 10 μM NGI-1, 5 d, p<0.05
Protocol: FIGS. 7A-7D illustrate EGFR kinase domain mutant cell lines growth inhibition and cell cycle arrest response to NGI-1. FIG. 7A illustrates MTT assays to determine the effects of NGI-1 on growth of H3255 cells. FIG. 7B illustrates MIT assays to determine the effects of NGI-1 on growth of HCC827 cells. EGFR kinase domain mutant cell lines H3255 and HCC827 cells were untreated or treated with 10 μM NGI-1 for 5 d. […] FIG. 7C illustrates cell cycle distribution of H3255 after 24 h NGI-1 treatment for 24 h determined by flow cytometry. FIG. 7D illustrates cell cycle distribution of HCC827 after 24 h NGI-1 treatment for 24 h determined by flow cytometry.
Growth rates were determined by CellTiter 96 NonRadioactive Cell Proliferation Assay (Promega; Madison, Wis. USA) according to the manufacturer's directions. Briefly, NSCLC cells (2×10^3) untreated or treated with […] NGI-1 or 1 μM Tn, were seeded in triplicates in 96-wells plates and grown in culture medium containing […]. Cell numbers were estimated after 0, 3, and 5 days by adding MTT [(3-(4,5-Dimethylthiazol-2-yl)-2,5-diphenyltetrazolium bromide] reagent to the wells 4 hours before taking the spectrophotometric reading (absorbance at 570 nm).

Cc1cnc(NC(=O)c2cc(S(=O)(=O)N(C)C)ccc2N2CCCC2)s1 [NGI-1, 5-(N,N-Dimethylsulfamoyl)-N-(5-methylthiazol-2-yl)-2-(pyrrolidin-1-yl)benzamide]
glycosylation of pSAP and SHBG sites (OST; 10 μM NGI-1, 24 h, compared to STT3A/STT3B knockdown): reduced glycosylation of all sites on pSAP and SHBG | reversibility of OST inhibition (OST; NGI-1 24 h prior to, during 20 min labeling, or both): reversible OST inhibitor | induction of apoptosis (A549 cells): did not induce apoptosis | reduction of proliferation, MTT (H3255 cells): > 45%

Reference: patent US11219625B2, “Inhibitors of N-linked glycosylation and methods using same” (YALE UNIVERSITY, priority 2015, dated 2022)
